Laboratory results as given in patent US10112949B2, “6,7-dihydropyrazolo[1,5-a]pyrazin-4(5H)-one compounds and their use as negative allosteric modulators of mGluR2 receptors” (Janssen Pharmaceutica NV, priority 2014, dated 2018).
Like-named read-outs stand apart in the source and are kept apart here.

Experiments:
[1] = system: apomorphine-challenged rats; assay: Reversal of LY-404039-induced decrease of palpebral opening in apomorphine-challenged rats; type: in vivo, rat; details: for ED50: rat, criterion cumulative palpebral opening score >26, read-out: ED50 APO LY-404039
Method: B) In Vivo Pharmacology 1) Reversal of LY-404039-Induced Decrease of Palpebral Opening in Apomorphine-Challenged Rats.
Male Wiga Wistar rats (Crl:WI; Charles River Germany; 220±40 g) were housed under standard laboratory conditions (21±2° C.; 50-65% relative humidity; light-dark cycle set at 12 h; lights on at 6.00 h) and fasted overnight prior to the start of the experiments (tap water remained available ad libitum). During the test period, they were housed in individual cages. Palpebral opening was scored every 5 min over the first hour after injection of apomorphine (1.0 mg/kg, i.v.) in animals either pretreated or not pretreated with LY-404039 (2.5 mg/kg, s.c.) at 1 h prior to the apomorphine injection. The animals were also pretreated with test compound or solvent at a predefined interval before apomorphine challenge. The score system was: (5) exophthalmos, (4) wide open, (3) open for three-quarters, (2) half open, (1) open for one-quarter, (0) closed. The scores for palpebral opening were cumulated over the 60-min observation period.

[2] = system: rats; assay: Reversal of the effect of the mGluR2 PAM JNJ-42153605-induced inhibition of scopolamine-induced hyperlocomotion; type: in vivo, rat; details: for ED50: rat, route PO (route cell empty for Co. No. 22, 25, 18, 19, 29), criterion total distance >1500 cm, read-out: ED50 SCOP JNJ-42153605
Method: 2) Reversal of the Effect of the mGluR2 PAM JNJ-42153605-Induced Inhibition of Scopolamine-Induced Hyperlocomotion Apparatus
Motor activity was measured in microprocessor-based motor activity arenas (closed gray PVC cylinders with a height of 39 cm and a diameter of 31 cm). Each arena was placed on an infrared LED (8×8 LEDs) lit box (white PVC squared box; 40×40 cm^2; height 12.5 cm. An infrared-sensitive tube camera and a white light source were mounted to the ceiling above the observation chamber to track the animal. The total distance traveled (cm) was recorded and analyzed using the Noldus Ethovision XT Video Tracking System (Version 7.0.418; Noldus, Wageningen, The Netherlands). The intensity of the light within the activity cages (measured in the centre at the level of the floor) ranged between 4 and 8 LUX.
The rats were pretreated with test compound or vehicle at 60 min before the start of the activity recordings and placed into individual cages. The rats were challenged with JNJ-42153605 (3-(cyclopropylmethyl)-7-(4-phenylpiperidin-1-yl)-8-(trifluoromethyl)-[1,2,4]triazolo[4,3-a]pyridine; WO2010/130424; Cid et al. J. Med. Chem. 2012, 55, 8770-8789) (20 mg/kg, i.v.) 30 min before the start of the activity recording combined with scopolamine (0.16 mg/kg, i.v.) just before the start of the activity measurements. Immediately after the injection of scopolamine, the rats were placed into the activity monitors and total distance travelled over the first 30 min was measured.
Solvent-Pretreated Control Rats.
For reversal of the inhibitory effect of JNJ-42153605 on the scopolamine-induced hyperlocomotion, the following all-or-none criteria were adopted: (1) reversal: total distance >1500 cm.

[3] = biological target: human mGlu2 receptor (Homo sapiens, UniProt Q14416); assay: [35S]GTPγS binding assay, negative allosteric modulation of mGluR2; details: for Emax: read-out: GTPγS - hmGluR2 anGT Emax;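 for all read-outs here: membranes from CHO cells expressing the receptor, compound with glutamate near EC80 (60 µM), 30 min preincubation then 30 min label uptake at 30 °C, percent of control glutamate response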
Method: Here we describe the use of the [^35S]GTPγS binding assay using membranes from cells transfected with the human mGlu2 receptor and adapted from Schaffhauser et al. (Molecular Pharmacology, 2003, 4:798-810) for the detection of the negative allosteric modulation (NAM) properties of the compounds of this invention.
CHO-cells were cultured to pre-confluence and stimulated with 5 mM butyrate for 24 h. Cells were then collected by scraping in PBS and cell suspension was centrifuged (10 min at 4000 RPM in benchtop centrifuge). Supernatant was discarded and pellet gently resuspended in 50 mM Tris-HCl, pH 7.4 by mixing with an Ultra Turrax homogenizer. The suspension was centrifuged at 12,400 RPM (Sorvall F14S-6x250Y) for 10 minutes and the supernatant discarded. The pellet was homogenized in 5 mM Tris-HCl, pH 7.4 using an Ultra Turrax homogenizer and centrifuged again (13,000 RPM, 20 min, 4° C.). The final pellet was resuspended in 50 mM Tris-HCl, pH 7.4 and stored at −80° C. in appropriate aliquots before use. Protein concentration was determined by the Bradford method (Bio-Rad, USA) with bovine serum albumin as standard.
Measurement of mGluR2 negative allosteric modulatory activity of test compounds was performed as follows. Test compounds and glutamate were diluted in assay buffer containing 10 mM HEPES acid, 10 mM HEPES salt, pH 7.4, 100 mM NaCl, 3 mM MgCl2 and 10 μM GDP. Human mGlu2 receptor-containing membranes were thawed on ice and diluted in assay buffer supplemented with 18 μg/ml saponin. Membranes were pre-incubated with compound together with a predefined (˜EC80) concentration of glutamate (60 μM) for 30 min at 30° C. After addition of [^35S]GTPγS (f.c. 0.1 nM), assay mixtures were shaken briefly and further incubated to allow [^35S]GTPγS incorporation on activation (30 minutes, 30° C.). Final assay mixtures contained 7 μg of membrane protein in 10 mM HEPES acid, 10 mM HEPES salt, pH 7.4, 100 mM NaCl, 3 mM MgCl2, 10 μM GDP and 10 μg/ml saponin. Total reaction volume was 200 μl. Reactions were terminated by rapid filtration through Unifilter-96 GF/B plates (Perkin Elmer, Massachusetts, USA) using a 96-well filtermate universal harvester. Filters were washed 6 times with ice-cold 10 mM NaH2PO4/10 mM Na2HPO4, pH 7.4. Filters were then air-dried and 30 μl of liquid scintillation cocktail (Microscint-O) was added to each well. Membrane-bound radioactivity was counted in a Topcount.
Data were calculated as % of the control glutamate response, defined as the response that is generated upon addition of an EC80-equivalent concentration of glutamate. Sigmoid concentration-response curves plotting these percentages versus the log concentration of the test compound were analyzed using non-linear regression analysis. The concentration producing half-maximal inhibition was calculated as the IC50. The pIC50 values were calculated as the −log IC50, when the IC50 is expressed in M. Emax is defined as the relative maximal effect (i.e. maximal % inhibition relative to the control glutamate response).

[4] = Induction of mydriasis; details: Wiga, in vivo, rat, route PO; for ED50: maximum pupil diameter >25 units over 1, 2 or 3 h post-administration, read-out: ED50 MYD Test 2
Method: 3) Induction of Mydriasis
The pupil diameter of Wiga rats was measured with a microscopic micrometer (1 unit= 1/24 mm). Criteria for drug-induced effects: pupil diameter >25 units for mydriasis (in controls: 1.9%) 1 h post-administration of the test compound (test 1) or 1, 2 or 3 h post-administration of the test compound (test 2, wherein the maximum pupil diameter over the full 3 h period is reported).

[5] = control rats, scores cumulated over 60 min
[6] = historical solvent-pretreated control rats, first 30 min

human mGlu2 receptor, sequence (Q14416 19-872): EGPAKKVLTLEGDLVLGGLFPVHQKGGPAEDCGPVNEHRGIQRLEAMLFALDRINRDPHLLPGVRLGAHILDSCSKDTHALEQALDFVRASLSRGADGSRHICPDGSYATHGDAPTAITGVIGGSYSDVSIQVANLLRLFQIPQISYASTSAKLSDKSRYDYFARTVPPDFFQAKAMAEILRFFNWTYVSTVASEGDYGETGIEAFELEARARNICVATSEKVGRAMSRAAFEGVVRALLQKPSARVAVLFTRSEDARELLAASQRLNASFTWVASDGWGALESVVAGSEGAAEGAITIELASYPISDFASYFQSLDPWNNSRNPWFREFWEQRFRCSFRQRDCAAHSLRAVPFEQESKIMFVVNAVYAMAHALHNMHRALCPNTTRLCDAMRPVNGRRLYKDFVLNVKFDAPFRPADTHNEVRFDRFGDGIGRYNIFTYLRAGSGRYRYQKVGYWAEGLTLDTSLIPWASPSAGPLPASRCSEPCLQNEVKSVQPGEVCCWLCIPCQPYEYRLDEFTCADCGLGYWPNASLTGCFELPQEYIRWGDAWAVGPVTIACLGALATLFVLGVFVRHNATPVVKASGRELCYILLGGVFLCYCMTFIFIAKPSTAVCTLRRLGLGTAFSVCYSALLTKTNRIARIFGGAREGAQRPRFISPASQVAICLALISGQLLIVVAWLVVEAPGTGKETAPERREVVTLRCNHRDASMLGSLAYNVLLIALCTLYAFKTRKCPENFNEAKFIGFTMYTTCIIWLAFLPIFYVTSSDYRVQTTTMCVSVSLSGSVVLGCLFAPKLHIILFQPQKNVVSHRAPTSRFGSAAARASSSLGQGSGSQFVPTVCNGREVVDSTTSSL

IC50 [3] [nM]	Emax [3] [%]	SMILES	also measured
–	–	CN1CCc2cccc3c2[C@H]1Cc1ccc(O)c(O)c1-3 [Apomorphine alone, apomorphine]	Palpebral opening score, Median score ([1]; control rats, apomorphine 1.0 mg/kg i.v., LY-404039 2.5 mg/kg s.c., scores cumulated over 60 min): 43; Palpebral opening score, Occurrence score >26 (%) [1, 5]: 99.5%; Palpebral opening score, Occurrence score >34 (%) [1, 5]: 95.9%; Palpebral opening score, Occurrence score >34 (%) ([1]; control rats, scores cumulated over 60 min, listed as apomorphine alone): 95.5%
–	–	CN1[C@@H]2C[C@@H](OC(=O)[C@H](CO)c3ccccc3)C[C@H]1[C@@H]1O[C@@H]12 [Scopolamine, scopolamine, reference compound]	Total distance >1500 cm (%) [2, 6]: 100%; Total distance >4400 cm (%) [2, 6]: 95.8%; Total distance travelled, Median (cm) [2, 6]: 7246 cm
1.58	106	C[C@H]1CN(c2ccc(C(F)(F)F)cc2)C(=O)c2c(C#Cc3ccc(N)nc3)cnn21 [compound 1]	ED50 ([1]; route PO): 0.08 mg/kg; ED50 ([1]; route SC): 0.06 mg/kg; ED50 [4]: > 40 mg/kg; ED50 at 1 h ([4]; pupil diameter >25 units 1 h post-administration, read-out: ED50 MYD Test 1): > 10 mg/kg; ED50 [2]: 0.17 mg/kg
1.12	105	C[C@H]1CN(c2ccc(Cl)c(Cl)c2)C(=O)c2c(C#Cc3ccc(N)nc3)cnn21 [compound 2]	–
2.24	105	CNc1ccc(C#Cc2cnn3c2C(=O)N(c2ccc(Cl)c(Cl)c2)C[C@@H]3C)cn1 [compound 3]	–
2.4	103	C[C@H]1CN(c2ccc(C(F)(F)F)cn2)C(=O)c2c(C#Cc3ccc(N)nc3)cnn21 [compound 4]	–
4.07	105	C[C@H]1CN(c2ccc(C(F)(F)F)cc2)C(=O)c2c(C#Cc3ccccc3)cnn21 [compound 5]	–
5.62	106	COc1ccc(C#Cc2cnn3c2C(=O)N(c2ccc(Cl)c(Cl)c2)C[C@@H]3C)cn1 [compound 6]	–
6.76	105	C[C@H]1CN(c2ccc(Cl)c(Cl)c2)C(=O)c2c(C#Cc3ccc(F)nc3)cnn21 [compound 7]	–
8.51	107	COc1ccc(N2C[C@H](C)n3ncc(C#Cc4ccc(N)nc4)c3C2=O)cc1Cl [compound 8]	–
8.71	107	Cc1cc(C#Cc2cnn3c2C(=O)N(c2ccc(C(F)(F)F)cc2)C[C@@H]3C)ccn1 [compound 9]	–
10	105	C[C@H]1CN(c2ccc(C(F)(F)F)cc2)C(=O)c2c(C#Cc3ccnc(N)c3)cnn21 [compound 10]	–
10.2	103	Cc1ccc(C#Cc2cnn3c2C(=O)N(c2ccc(C(F)(F)F)cc2)C[C@@H]3C)cn1 [compound 11]	–
33.1	107	C[C@H]1CN(c2ccc(Cl)c(Cl)c2)C(=O)c2c(C#Cc3ccc(N(C)C)nc3)cnn21 [compound 12]	–
1.1	108	C[C@H]1CN(c2ccc(C(F)(F)F)c(Cl)c2)C(=O)c2c(C#Cc3ccc(N)nc3)cnn21 [compound 13]	ED50 [4]: > 40 mg/kg; ED50 [2]: 0.028 mg/kg
7.08	104	C[C@H]1CN(c2ccc(C(F)C(F)(F)F)cc2)C(=O)c2c(C#Cc3ccc(N)nc3)cnn21 (some centres unmarked) [compound 16]	–

IC50 [3] [nM]	Emax [3] [%]	SMILES	also measured
14.8	105	C[C@H]1CN(c2ccc(C(F)(F)F)cc2)C(=O)c2c(C#Cc3cccnc3N)cnn21 [compound 17]	–
2.69	107	C[C@H]1CN(c2ccc(C(F)(F)F)c(F)c2)C(=O)c2c(C#Cc3ccc(N)nc3)cnn21 [compound 18]	ED50 [2]: 0.13 mg/kg
2.14	104	C[C@H]1CN(c2ccc(C(F)(F)F)c(CF)n2)C(=O)c2c(C#Cc3ccc(N)nc3)cnn21 [compound 19]	ED50 [2]: > 0.63 mg/kg
24	102	COCc1cc(C#Cc2cnn3c2C(=O)N(c2ccc(C(F)(F)F)cc2)C[C@@H]3C)cnc1N [compound 20]	–
41.7	102	C[C@H]1CN(c2ccc(C(F)(F)F)cc2)C(=O)c2c(C#Cc3cnc(N)c(CF)c3)cnn21 [compound 21]	–
0.832	106	C[C@H]1CN(c2ccc(C(F)(F)F)c(Cl)c2)C(=O)c2c(C#Cc3cnc(N)cc3CO)cnn21 [compound 22]	ED50 [2]: > 0.63 mg/kg
2.75	106	C[C@H]1CN(c2ccc(C(F)(F)F)cc2)C(=O)c2c(C#Cc3cnc(N)cc3CF)cnn21 [compound 23]	–
15.8	99	CNc1ncccc1C#Cc1cnn2c1C(=O)N(c1ccc(C(F)(F)F)cc1)C[C@@H]2C [compound 24]	–
2.24	105	COCc1cc(N)ncc1C#Cc1cnn2c1C(=O)N(c1ccc(C(F)(F)F)cc1)C[C@@H]2C [compound 25]	ED50 [2]: 0.08 mg/kg
37.2	108	C[C@H]1CN(c2ccc(C(F)(F)F)cc2)C(=O)c2c(C#Cc3cncc(CF)c3)cnn21 [compound 26]	–
97.7	106	COCc1cncc(C#Cc2cnn3c2C(=O)N(c2ccc(C(F)(F)F)cc2)C[C@@H]3C)c1 [compound 27]	–
53.7	101	C[C@H]1CN(c2ccc(C(F)(F)F)cc2)C(=O)c2c(C#Cc3cncc(CO)c3)cnn21 [compound 28]	–
2.95	106	C[C@H]1CN(c2ccc(C(F)(F)F)cc2)C(=O)c2c(C#Cc3cnc(N)cc3CO)cnn21 [compound 29]	ED50 [2]: > 0.63 mg/kg
8.71	111	CNc1ccc(C#Cc2cnn3c2C(=O)N(c2ccc(C(F)(F)F)c(Cl)n2)C[C@@H]3C)cn1 [compound 31]	–
9.33	106	CNc1ccc(C#Cc2cnn3c2C(=O)N(c2ccc(C(F)(F)F)c(OC)n2)C[C@@H]3C)cn1 [compound 32]	–
2.51	109	COc1nc(N2C[C@H](C)n3ncc(C#Cc4ccc(N)nc4)c3C2=O)ccc1C(F)(F)F [compound 33]	–

SMILES	IC50 [3] [nM]	Emax [3] [%]	also measured
C[C@H]1CN(c2ccc(C(F)(F)F)cc2)C(=O)c2c(C#Cc3cccc(S(=O)(=O)F)c3)cnn21 [compound 34]	14.5	110	–
C[C@H]1CN(c2ccc(C(F)(F)F)cc2)C(=O)c2c(C#Cc3ccc(S(=O)(=O)F)cc3)cnn21 [compound 35]	42.7	108	–
